This note sets out measurements from patent publication US11925696B2, “Carbonic anhydrase IX targeting agents and methods” (priority 2016, dated 2024).

Read-outs that look alike come from different tables or passages of the source.

For series [1], the system named is HT-29 cells. The series can be described thus: Fluorescent microscopy: binding of rhodamine-labeled CA IX conjugates to HT-29 cells. The note with it: 1 hour at 37° C.; alone or plus 100-fold excess CA IX inhibitor; confocal microscopy. It is filed as cell-based, human. The protocol:
Fluorescent conjugates were incubated with HT-29 cells in the presence or absence of 100-fold excess unlabeled ligand. After washing, white light and fluorescent microscopy were used to visualize binding.
a. HT-29 cells (10^5) were seeded into chambered coverglass plates and allowed to grow to confluence over 48-72 hr. Spent medium was replaced with 0.5 mL of fresh medium containing 0.5% bovine serum albumin and various concentrations of the dye conjugate (L1-Rhodamine, L2-Rhodamine or L3-Rhodamine) alone or the dye conjugate plus 100-fold excess CA IX inhibitor L1, L2 or L3, where appropriate. After incubation for 1 hour at 37° C., cells were rinsed twice with 1 mL of incubation solution to remove unbound fluorescence and 0.5 ml of fresh incubation medium was added to the wells. Images were acquired using a confocal microscopy (FV 1000, Olympus).

Series [2] concerns HCT-116, HT-29, RCC4 and SK-RC-38 human cancer cell lines. The series can be described thus: Fluorescent microscopy: binding of L2-Rhodamine to CA IX expressing cell lines. It is filed as cell-based. The protocol:
After washing, white light and fluorescent microscopy were used to visualize binding.
b. HCT-116, HT-29, RCC4 and SK-RC-38 human cancer cell lines (10^5) were seeded into chambered coverglass plates and allowed to grow to confluence over 48-72 hr. […] After incubation for 1 hour at 37° C., cells were rinsed with incubation solution (2×1.0 mL) to remove unbound conjugate then washed with PBS (1×1.0 mL). Images were acquired using confocal microscopy (FV 1000, Olympus). […] Additionally, the punctate appearance in several of the cell lines is indicative of a rapid internalization of the bound conjugate.

Another series deals with HT-29 xenograft tumors. The note with it: for relative average radioactive intensity in the tumor: 10 nmol tail vein, kidneys shielded. How it is done: Whole animal images were taken 4 hours post-injection. […] The percentage of the injected dose per gram of tissue was determined and plotted. Error bars represent standard deviation. (□) Competition; (▪) L2-PEG36-EC20. […] Whole animal images were taken 9 hours post-injection. […] The percentage of the injected dose per gram of tissue was determined and plotted. Error bars represent standard deviation. (□) Competition; (▪) L2-PEG36-EC20. […] Whole animal images were taken 24 hours post-injection. […] The percentage of the injected dose per gram of tissue was determined and plotted. Error bars represent standard deviation. (□) Competition; (▪) L2-PEG36-EC20. […] At various times, animals were sacrificed by CO2 asphyxiation. […] Three mice bearing HT-29 xenografts were administered 10 nmol of conjugate via tail vein injection while an additional three mice also received 100-fold excess unconjugated inhibitor. A single mouse from each of the two groups was sacrificed for whole animal imaging and tissue/organ biodistribution analysis at 4, 9 and 24 hours post injection.

Series [3] has as its system HT-29 cells. The series can be described thus: 99mTc conjugates binding to HT-29 cells (apparent KD, gamma counting). Further details: species or system human. The conditions noted are these: for Kd: 99mTc-bound conjugate, 1 h at 37° C., read-out: Binding Affinity (apparent KD). How it is done: HT-29 cells (150,000 cells/well in 500 μL) were seeded into 24-well Falcon plates and allowed to form monolayers over 48 h. […] After incubating for 1 h at 37° C., cells were rinsed twice with 1 mL of medium and 1 mL of tris buffer. After dissolving in 0.5 mL of 0.25 M NaOH (aq), cells were transferred into individual γ-counter tubes and radioactivity was counted using a γ-counter (Packard, Packard Instrument Company). Apparent KD was calculated by plotting bound radioactivity versus the concentration of radiotracer using GraphPad Prism 4.

The next series in a line: Maximum tolerated dose. In kind it is in vivo, mice. The conditions noted are these: for Euthanized (mice) / Healthy (mice) / Sick (mice): thrice weekly tail vein, three mice per group. The protocol: Maximum tolerated dose. Various concentrations of L2-Tubulysin B were administered to male nu/nu mice thrice weekly via tail vein injection. Visibly sick mice were recorded and if necessary euthanized before the end of the experiment. […] Therefore, a dose of 2 μmol/kg was used for further in vivo efficacy studies.

Series [4] relates to HT-29 cells. In kind it is cell-based, human. The conditions noted are these: for IC50: 2 h exposure, additional 66 h in fresh medium, read-out: IC50 (3H-thymidine incorporation). The protocol: After washing, the cells were incubated for […] and their viability was determined via ^3H-thymidine uptake.
HT-29 cells were seeded on amine-coated 24-well plates and allowed to form monolayers. The spent medium in each well was replaced with fresh medium (0.5 mL) containing various concentrations of Tubulysin B or L2-Tubulysin B in the presence or absence of 100-fold excess CA IX inhibitor L2. After incubating for 2 h at 37° C., cells were rinsed 3 times with fresh medium and then incubated an additional 66 h at 37° C. in fresh medium. Spent medium in each well was again replaced with fresh medium (0.5 mL) containing ^3H-thymidine (1 μCi/ml) and the cells were incubated for an additional 4 h. After washing the cells 3 times with medium, they were dissolved in 0.5 mL of 0.25 M NaOH. Thymidine incorporation was then determined by counting cell-associated radioactivity using a scintillation counter (Packard, Packard Instrument Company). The IC50 value was derived from a plot of the percent of ^3H-thymidine incorporation versus log concentration using Graph Pad Prism 4 and TableCurve 2D software.
For orientation: Dividing cells build labelled thymidine or BrdU into new DNA.

The next series relates to HT29 subcutaneous tumors. The series can be described thus: In vivo xenograft tumor efficacy of L2-Tubulysin B. Further details: species or system mice. The conditions noted are these: for tumor growth: thrice weekly for 3 weeks. The protocol:
Once tumors reached a volume of ˜100 mm^3, mice were randomized into various treatment groups (n=3 for each IP group). L2-Tubulysin B (2 μmol/kg) was administered intraperitoneally in the presence or absence of 100-fold excess CA IX ligand L2 every other day for 9 doses. Tumor volume and weight were measured every other day. Error bars represent standard error of the mean. FIG. 10A: (●) PBS Control, (▴) L2-Tubulysin B, (□) Competition. FIG. 10B: (●) PBS Control, (▴) L2-Tubulysin B, (□) Competition.
Once tumors reached a volume of ˜100 mm^3, mice were randomized into various treatment groups (n=5 for each IV group). CA IX-Tubulysin B ([…]) was administered via tail vein injection in the presence or absence of 100-fold excess CA IX ligand every other day for 9 doses. Tumor volume and weight were measured every other day. Error bars represent standard error of the mean. FIG. 11A: (●) PBS Control, (▴) L2-Tubulysin B, (□) Competition. FIG. 11B: (●) PBS Control, (▴) L2-Tubulysin B, (□) Competition.
In vivo xenograft tumor efficacy of L2-Tubulysin B. HT29 cells (5.0×10^6) were injected into the shoulders of 5-6 week old female nu/nu mice. Tumors were measured in two perpendicular directions thrice weekly with vernier calipers and their volumes were calculated as 0.5×L×W^2, where L is the longest axis (in millimeters), and W is the axis perpendicular to L (in millimeters). Dosing of L2-Tubulysin B in the presence or absence of 100-fold excess CA IX inhibitor L2 was initiated when the subcutaneous tumors reached ˜100 mm^3 in volume. Dosing solutions were prepared in saline and filtered through a 0.22 μm filter. Solutions were administered via tail vein injection or intraperitoneally. Each mouse received 2 μmol/kg L2-Tubulysin B per injection. Injections were given thrice weekly for 3 weeks and the mice were weighed concurrently.

For the compound `CN(C)c1ccc2c(-c3ccc(C(=O)NCCCCCNC(=O)CN(CCN(CC(=O)O)CC(=O)Nc4ccc(S(N)(=O)=O)cc4)CC(=O)Nc4ccc(S(N)(=O)=O)cc4)cc3C(=O)O)c3ccc(=[N+](C)C)cc-3oc2c1` [Conjugate L2-Rhodamine], the “binding to HT-29 cells and competition by excess unconjugated inhibitor” value with HT-29 cells [1] was “bound the cells and were competed in the presence of excess unconjugated inhibitor”. In addition, the “binding in the presence of competing unconjugated CA IX inhibitor” value in series [2] (competing unconjugated CA IX inhibitor as printed (method: 100-fold excess L2)) was “essentially no binding was observed”. Moreover, the “binding to cell lines” value in series [2] (dye conjugate alone, 1 hour at 37° C., confocal microscopy) was “binding is observed in every cell line tested”.

For the compound `CN(C)c1ccc2c(-c3ccc(C(=O)NCCOCCOCCOCCOCCC(=O)Nc4cccc(NC(=O)Nc5ccc(S(N)(=O)=O)cc5)c4)cc3C(=O)O)c3ccc(=[N+](C)C)cc-3oc2c1` [Conjugate L3-Rhodamine], the “binding to HT-29 cells and competition by excess unconjugated inhibitor” value with HT-29 cells [1] was “bound the cells and were competed in the presence of excess unconjugated inhibitor”.

Take `N[C@H](CNC(=O)CCOCCOCCOCCOCCOCCOCCOCCOCCOCCOCCOCCOCCOCCOCCOCCOCCOCCOCCOCCOCCOCCOCCOCCOCCOCCOCCOCCOCCOCCOCCOCCOCCOCCOCCOCCOCCNC(=O)CN(CCN(CC(=O)O)CC(=O)Nc1ccc(S(N)(=O)=O)cc1)CC(=O)Nc1ccc(S(N)(=O)=O)cc1)C(=O)N[C@@H](CC(=O)O)C(=O)NC[C@H](CS)C(=O)O` [L2-PEG36-EC20]: the “tumor intensity with concurrent 100-fold excess unconjugated inhibitor” value in the series with HT-29 xenograft tumors (4, 9 and 24 hours post injection) is reported as “did not exhibit any intensity in the tumor”. Moreover, the “relative average radioactive intensity in the tumor” value is around 1300 in the series with HT-29 xenograft tumors (4 hours post injection), 750 with HT-29 xenograft tumors (9 hours post injection) and 350 with HT-29 xenograft tumors (24 hours post injection). Also, the Kd in the series with HT-29 cells [3] was found to be 57 nM.

Consider `CCCC(=O)OCN(C(=O)[C@@H](NC(=O)[C@H]1CCCCN1C)[C@@H](C)CC)[C@H](C[C@@H](OC(C)=O)c1nc(C(=O)N[C@@H](Cc2ccc(O)cc2)C[C@H](C)C(=O)NNC(=O)OCCSSC[C@H](NC(=O)[C@H](CC(=O)O)NC(=O)[C@@H](N)CNC(=O)CCOCCOCCOCCOCCOCCOCCOCCOCCOCCOCCOCCOCCNC(=O)CN(CCN(CC(=O)O)CC(=O)Nc2ccc(S(N)(=O)=O)cc2)CC(=O)Nc2ccc(S(N)(=O)=O)cc2)C(=O)O)cs1)C(C)C` [L2-Tubulysin B], for which, in “Maximum tolerated dose” (1 μmol/kg), the adverse events entry is “no adverse events were identified”, the “Euthanized (mice)” value amounted to 0, the “Healthy (mice)” value stood at 3 and the “Sick (mice)” value is given as 0. For the same compound, in “Maximum tolerated dose” (3 μmol/kg), the “Euthanized (mice)” value was determined as 0, the “Healthy (mice)” value came to 2 and the “Sick (mice)” value is recorded as 1. Further, in “Maximum tolerated dose” (5 μmol/kg), the “Euthanized (mice)” value is 2, the “Healthy (mice)” value came to 0 and the “Sick (mice)” value is listed as 1. Further, the signs of toxicity entry in the series “Maximum tolerated dose” (highest dose) is “all mice showed signs of toxicity”. Moreover, the IC50 in the series with HT-29 cells [4] is 4.4 nM. In the series with HT-29 cells [4] (HT-29 cells), the “cytotoxic effect with 100-fold excess of the unconjugated inhibitor” value is on record as “completely abrogated”. Further, the “tumor growth with 100-fold excess CA IX inhibitor L2” value with HT29 subcutaneous tumors (2 μmol/kg) was “growth of the tumors was similar to the control group”. Besides, the tumor growth entry in the series with HT29 subcutaneous tumors (2 μmol/kg intraperitoneally) is listed as “essentially halted tumor growth”. For the same compound, in the series on HT29 subcutaneous tumors (2 μmol/kg via tail vein injection), the tumor growth result is given as “essentially halted tumor growth”. Besides, in the series with HT29 subcutaneous tumors (2 μmol/kg, both routes), the gross toxicity result is listed as “no gross toxicity was observed” and the loss of weight result is reported as “no loss of weight was observed”.

Regarding `N[C@H](CNC(=O)CCOCCOCCOCCOCCOCCOCCOCCOCCOCCOCCOCCOCCNC(=O)CCC(=O)Nc1cccc(NC(=O)Nc2ccc(S(N)(=O)=O)cc2)c1)C(=O)N[C@@H](CC(=O)O)C(=O)NC[C@H](CS)C(=O)O` [L3-PEG12-EC20], the Kd in the series on HT-29 cells [3] was 146 nM. Moreover, the “decrease of binding by addition of the PEG12-EC20” value with HT-29 cells [3] (binding affinity of conjugate versus reported Ki of original ligand) came out at 162 fold.

Turning to `CCCC(=O)OCN(C(=O)[C@@H](NC(=O)[C@H]1CCCCN1C)[C@@H](C)CC)[C@H](C[C@@H](OC(C)=O)c1nc(C(=O)N[C@@H](Cc2ccc(O)cc2)C[C@H](C)C(=O)O)cs1)C(C)C` [Tubulysin B, reference compound], in the series on HT-29 cells [4], the IC50 is 0.08 nM.
